Data published in patent US20140094402A1, “Lantibiotic NAI-802, Pharmaceutically Acceptable Salts, Compositions and Uses Thereof” ([…] PHARMACEUTICALS, INC., priority 2011, published 2014).
In brackets after ≈: the same amount, converted by molar mass. Where two headings read alike, the source gives them in different places.

Assays:
Escherichia coli [1] = system: Escherichia coli
Moraxella catharralis [2] = system: Moraxella catharralis
[3] = system: Enterococcus faecalis VanA
[4] = system: Bacteroides fragilis ATCC 25285; conditions: ATCC 25285, 48 h
Clostridium difficile [5] = system: Clostridium difficile
[6] = system: Enterococcus faecium VanS
[7] = system: Peptstreptococcus asaccharolyticus; conditions: 48 h
[8] = system: Enterococcus faecium VanA
[9] = system: Staphylococcus aureus Met-R
Streptococcus pyogenes [10] = system: Streptococcus pyogenes
[11] = system: Enterococcus faecalis VanS
Streptococcus pneumoniae [12] = system: Streptococcus pneumoniae
[13] = system: Clostridium butyricum and Clostridium perfrigens
[14] = system: Gram positive bacteria, including staphylococci and streptococci; assay: In vitro antibacterial activity, summary statement; type: cell-based
Clostridium butyricum [15] = conditions: 48 h
[16] = system: Candida albicans ATCC 90028; conditions: ATCC 90028, 48 h
[17] = system: Staphylococcus aureus Met-S ATCC6538P; conditions: ATCC6538
Clostridium perfrigens [18] = system: Clostridium perfrigens
[19] = system: Enterococcus faecalis VanS; assay: microbe, parasite or virus in culture
Moraxella catharralis [20] = assay: microbe, parasite or virus in culture; conditions: read-out: Minimal Inhibitory Concentration
[21] = system: Bacteroides fragilis ATCC 25285; assay: microbe, parasite or virus in culture; conditions: ATCC25285, 48 h, read-out: Minimal Inhibitory Concentration
[22] = system: Enterococcus faecium VanA; assay: microbe, parasite or virus in culture; conditions: read-out: Minimal Inhibitory Concentration
[23] = system: Staphylococcus aureus Met-S ATCC19636; assay: microbe, parasite or virus in culture
Streptococcus pyogenes [24] = assay: microbe, parasite or virus in culture; conditions: read-out: Minimal Inhibitory Concentration
[25] = system: Staphylococcus aureus Met-R; assay: microbe, parasite or virus in culture; conditions: read-out: Minimal Inhibitory Concentration
Clostridium butyricum [26] = assay: microbe, parasite or virus in culture; conditions: 48 h, read-out: Minimal Inhibitory Concentration
[27] = system: Enterococcus faecium VanS; assay: microbe, parasite or virus in culture
Clostridium perfrigens [28] = assay: microbe, parasite or virus in culture; conditions: 48 h, read-out: Minimal Inhibitory Concentration
[29] = system: Staphylococcus aureus Met-S ATCC6538P; assay: microbe, parasite or virus in culture
Clostridium difficile [30] = assay: microbe, parasite or virus in culture; conditions: Clostridioides difficile, 48 h
[31] = system: Candida albicans ATCC 90028; assay: microbe, parasite or virus in culture; conditions: ATCC90028, 48 h, read-out: Minimal Inhibitory Concentration
[32] = system: Enterococcus faecalis VanA; assay: microbe, parasite or virus in culture; conditions: read-out: Minimal Inhibitory Concentration
[33] = system: Peptstreptococcus asaccharolyticus; assay: organism not typed; conditions: 48 h, read-out: Minimal Inhibitory Concentration
Escherichia coli [34] = assay: microbe, parasite or virus in culture; conditions: read-out: Minimal Inhibitory Concentration
Streptococcus pneumoniae [35] = assay: microbe, parasite or virus in culture; conditions: read-out: Minimal Inhibitory Concentration
[36] = range over codes 4013, 1365, 4015

Structure (SMILES): CC[C@H](C)[C@@H]1NC(=O)C2NC(=O)[C@H](CC(C)C)NC(=O)C(NC(=O)C3CSCC(NC(=O)[C@H](C)N)C(=O)N[C@@H](CO)C(=O)NCC(=O)N[C@@H](Cc4c[nH]c5ccccc45)C(=O)N[C@@H](C(C)C)C(=O)N3)C(C)SCC(NC(=O)[C@H](CCC(=O)O)NC1=O)C(=O)NCC(=O)NC1C(=O)N[C@@H](C(C)C)C(=O)N[C@@H]([C@@H](C)CC)C(=O)NC(CSC2C)C(=O)N[C@@H](C)C(=O)NC(C(=O)N[C@@H](CCCNC(=N)N)C(=O)NCCN)C[S+]([O-])C1C (some centres unmarked) [NAI-802 monoamide with ethylendiamine]
- Minimal Inhibitory Concentration (Escherichia coli [1]): >128 mg/L
- Minimal Inhibitory Concentration (Moraxella catharralis [2]): 32 mg/L
- Minimal Inhibitory Concentration [3]: 32 mg/L
- Minimal Inhibitory Concentration [4]: >128 mg/L
- Minimal Inhibitory Concentration (Clostridium difficile [5]; code 4013, anaerobic, 48 hours): ≦0.125 mg/L
- Minimal Inhibitory Concentration, range (Clostridium difficile [5]; [36]): ≦0.125-1 mg/L
- Minimal Inhibitory Concentration [6]: 32 mg/L
- Minimal Inhibitory Concentration [7]: 0.5 mg/L
- Minimal Inhibitory Concentration [8]: 16 mg/L
- Minimal Inhibitory Concentration [9]: 8 mg/L
- Minimal Inhibitory Concentration (Streptococcus pyogenes [10]; code 49, Todd Hewitt broth): ≦0.125 mg/L
- Minimal Inhibitory Concentration [11]: 32 mg/L
- Minimal Inhibitory Concentration (Streptococcus pneumoniae [12]): 2 mg/L
- Minimal Inhibitory Concentration, range [13]: 1 to 8 mg/L
- antibacterial activity compared to native NAI-802 ([14]; against certain organisms): more antibacterial active
- Minimal Inhibitory Concentration (Clostridium butyricum [15]): 1 mg/L
- Minimal Inhibitory Concentration [16]: >128 mg/L
- Minimal Inhibitory Concentration [17]: 4 mg/L

Structure (SMILES): CC[C@H](C)[C@@H]1NC(=O)C2NC(=O)[C@H](CC(C)C)NC(=O)C(NC(=O)C3CSCC(NC(=O)[C@H](C)N)C(=O)N[C@@H](CO)C(=O)NCC(=O)N[C@@H](Cc4c[nH]c5ccccc45)C(=O)N[C@@H](C(C)C)C(=O)N3)C(C)SCC(NC(=O)[C@H](CCC(=O)O)NC1=O)C(=O)NCC(=O)NC1C(=O)N[C@@H](C(C)C)C(=O)N[C@@H]([C@@H](C)CC)C(=O)NC(CSC2C)C(=O)N[C@@H](C)C(=O)NC(C(=O)N[C@@H](CCCNC(=N)N)C(=O)O)C[S+]([O-])C1C (some centres unmarked) [NAI-802]
- Minimal Inhibitory Concentration (Escherichia coli [1]): >128 mg/L
- Minimal Inhibitory Concentration (Moraxella catharralis [2]): 64 mg/L
- Minimal Inhibitory Concentration [3]: 128 mg/L
- Minimal Inhibitory Concentration [4]: >128 mg/L
- Minimal Inhibitory Concentration, range (Clostridium difficile [5]): 0.25 to 2 mg/L
- Minimal Inhibitory Concentration [6]: >128 mg/L
- Minimal Inhibitory Concentration [7]: 1 mg/L
- Minimal Inhibitory Concentration (Clostridium perfrigens [18]; 48 h): 2 mg/L
- Minimal Inhibitory Concentration [8]: 128 mg/L
- Minimal Inhibitory Concentration [9]: 32 mg/L
- Minimal Inhibitory Concentration (Streptococcus pyogenes [10]): 0.5 mg/L
- Minimal Inhibitory Concentration [11]: 128 mg/L
- Minimal Inhibitory Concentration (Streptococcus pneumoniae [12]): 8 mg/L
- Minimal Inhibitory Concentration, range [13]: 0.25 to 2 mg/L
- antibacterial activity against Gram positive bacteria ([14]; including staphylococci and streptococci): antibacterial activity against Gram positive bacteria
- Minimal Inhibitory Concentration (Clostridium butyricum [15]): 0.25 mg/L
- Minimal Inhibitory Concentration [16]: >128 mg/L

Structure (SMILES): CN[C@H](CC(C)C)C(=O)N[C@H]1C(=O)N[C@@H](CC(N)=O)C(=O)N[C@H]2C(=O)N[C@H]3C(=O)N[C@H](C(=O)N[C@H](C(=O)O)c4cc(O)cc(O)c4-c4cc3ccc4O)[C@H](O)c3ccc(c(Cl)c3)Oc3cc2cc(c3O[C@@H]2O[C@H](CO)[C@@H](O)[C@H](O)[C@H]2O[C@H]2C[C@](C)(N)[C@H](O)[C@H](C)O2)Oc2ccc(cc2Cl)[C@H]1O [VA, vancomycin]
- MIC ([19]; read-out: Minimal Inhibitory Concentration, code 559): 1 µg/mL (≈ 0.69 µM)
- MIC ([19]; read-out: Minimal Inhibitory Concentration, code 559, +30% bovine serum): 2 µg/mL (≈ 1.38 µM)
- Minimal Inhibitory Concentration (Moraxella catharralis [2]; code 3294): >128 mg/L
- MIC (Moraxella catharralis [20]): > 128 µg/mL
- MIC [21]: 32 µg/mL (≈ 22.1 µM)
- MIC [22]: > 128 µg/mL
- MIC ([23]; ATCC19636, read-out: Minimal Inhibitory Concentration, code 819, +30% bovine serum): 1 µg/mL (≈ 0.69 µM)
- MIC ([23]; ATCC19636, read-out: Minimal Inhibitory Concentration, code 819, CAMHB): 0.5 µg/mL (≈ 0.345 µM)
- MIC (Streptococcus pyogenes [24]): 0.25 µg/mL (≈ 0.173 µM)
- MIC [25]: 0.5 µg/mL (≈ 0.345 µM)
- MIC (Clostridium butyricum [26]): 1 µg/mL (≈ 0.69 µM)
- MIC ([27]; read-out: Minimal Inhibitory Concentration, code 568): 2 µg/mL (≈ 1.38 µM)
- MIC ([27]; read-out: Minimal Inhibitory Concentration, code 568, +30% bovine serum): 4 µg/mL (≈ 2.76 µM)
- Minimal Inhibitory Concentration, range (Clostridium difficile [5]; [36]): 0.25 to 0.5 mg/L
- MIC (Clostridium perfrigens [28]): 1 µg/mL (≈ 0.69 µM)
- MIC ([29]; read-out: Minimal Inhibitory Concentration, code 100, +30% bovine serum): 1 µg/mL (≈ 0.69 µM)
- MIC ([29]; read-out: Minimal Inhibitory Concentration, code 100, CAMHB): 0.25 µg/mL (≈ 0.173 µM)
- Minimal Inhibitory Concentration (Clostridium perfrigens [18]; code 3607, anaerobic, 48 hours): 1 mg/L
- MIC (Clostridium difficile [30]; read-out: Minimal Inhibitory Concentration, code 1365, anaerobic): 0.5 µg/mL (≈ 0.345 µM)
- MIC (Clostridium difficile [30]; read-out: Minimal Inhibitory Concentration, code 4013, anaerobic): 0.25 µg/mL (≈ 0.173 µM)
- MIC (Clostridium difficile [30]; read-out: Minimal Inhibitory Concentration, code 4015, anaerobic): 0.25 µg/mL (≈ 0.173 µM)
- MIC [31]: > 128 µg/mL
- MIC [32]: > 128 µg/mL
- Minimal Inhibitory Concentration, range [13]: 1 mg/L
- MIC [33]: 0.5 µg/mL (≈ 0.345 µM)
- MIC (Escherichia coli [34]): > 128 µg/mL
- MIC (Streptococcus pneumoniae [35]): 0.5 µg/mL (≈ 0.345 µM)
